Data taken from US10828349B2, “Treatment of microbial infections” (NATIONAL UNIVERSITY OF IRELAND, GALWAY, priority 2011, dated 2020).

Columns and labels:
[1] = test system: R480/2012 9029; experiment: antibiotic susceptibility of strain; format: cell-based, P. aeruginosa; design: key: ‘S’ denotes sensitive; ‘R’ denotes resistant or increased tolerance; settings: R480/2012 9029, cystic fibrosis sputum isolate
Protocol: (§1) The susceptibility of a number of P. aeruginosa strains to the KI-Dose-150 composition was tested using the method described in Example 1. […] The relative susceptibilities are described in Table 4.

[2] = test system: R479/2012 9028; experiment: antibiotic susceptibility of strain; format: cell-based, P. aeruginosa; design: key: ‘S’ denotes sensitive; ‘R’ denotes resistant or increased tolerance; settings: R479/2012 9028, cystic fibrosis sputum isolate
Protocol: as §1

[3] = test system: R550/2012 9026; experiment: antibiotic susceptibility of strain; format: cell-based, P. aeruginosa; design: key: ‘S’ denotes sensitive; ‘R’ denotes resistant or increased tolerance; settings: R550/2012 9026, cystic fibrosis sputum isolate
Protocol: as §1

[4] = test system: R468/2012 9027; experiment: antibiotic susceptibility of strain; format: cell-based, P. aeruginosa; design: key: ‘S’ denotes sensitive; ‘R’ denotes resistant or increased tolerance; settings: R468/2012 9027, cystic fibrosis sputum isolate
Protocol: as §1

[5] = test system: P. aeruginosa D12; experiment: antibiotic susceptibility of strain; format: cell-based; design: key: ‘S’ denotes sensitive; ‘R’ denotes resistant or increased tolerance
Protocol: as §1

[6] = test system: E. coli; settings: constant H2O2 (glucose oxidase) and LP; substrate 40 mg/ml doubly diluted; Mueller Hinton broth
Protocol: (§2) Secondly, an assay where the concentration of substrates was maintained constant, and the H2O2 levels were varied was employed.
This was aliquoted (150 μl) to rows of a 96-well plate. […] The samples were doubly diluted as far as well 11, leaving well 12 as a control. The plate was incubated overnight at 37° C., and the optical density measured throughout.

[7] = test system: bacterial cells; experiment: lower limits of components of the enzymatic system, LB broth; format: cell-based; settings: for level of required substrate: glucose and glucose oxidase levels sufficient
Protocol: The lower limits of each of the components in an enzymatic system, required to produce inhibitory biocidal concentrations of the antimicrobial agents, were determined (for example Table 1 and Table 5). To establish these lower limits for each component, minimum inhibitory concentrations for each were calculated using doubling dilutions on a 96-well plate, in a manner similar to that described in Example 1, wherein the concentration of the component of choice is lowered until no effect on growth is noted. […] At levels below this, there was insufficient reactive oxygen species produced to result in effective bactericidal activity. The level of LP required for a reaction to produce the reactive oxygen species at the required concentrations was determined at 0.15 unit activity/ml (1 mM KI present). […] This embodiment of the invention suitable for the therapeutic treatment of mastitis also included beta-galactosidase to convert the lactose present in milk to glucose.

[8] = test system: E. coli; settings: constant substrate and LP; glucose/glucose oxidase doubly diluted; Mueller Hinton broth
Protocol: as §2
This was aliquoted (150 μl) to a 96 well plate.

[9] = test system: Staphycoccus epidermidis central venous catheter-related biofilm; settings: cited from earlier work; for result relative to gentamycin and vancomycin: biofilm lock therapy model; for duration of treatment after which biofilm cells were still recoverable: 10 g/L antibiotic
[10] = test system: E. coli ATCC 25922; experiment: hydrogen peroxide source growth inhibition assay with or without LP and KI; format: cell-based
Protocol: Aliquots (20 ml) of nutrient broth were inoculated with 10^8 cells of E. coli ATCC 25922, and 150 μl of the inoculated broth were added to wells in a 96 well growth plate. This was repeated with the inoculated broth being further supplemented with LP (37.5 μl of a 4 mg/ml solution) and KI (75 μl of a 40 mg/ml solution) to the medium.
Sources of hydrogen peroxide were added (150 μl) to well 1 and doubly diluted to well 11, but not to well 12, which acted as a control.

[11] = test system: bacterial cells; experiment: potency in broth growth medium containing catalase; format: cell-based; settings: hydrogen peroxide 0.85 M only
Protocol: This embodiment is referred to as ‘KI-Dose-150’.
The potency of the doses was not reversed. A 1:1024 dilution of the doses was inhibitory in the absence of catalase, and a 1:512 dilution of the doses was inhibitory in the presence of catalase.
As a comparison, the test was performed using only hydrogen peroxide (0.85 M), both in the presence and absence of catalase.

[12] = test system: E. coli; settings: catalase treated
Protocol: The antimicrobial properties of these compositions were tested using a doubling dilution 96-well plate growth assay-based method. An aliquot of the composition was added to 150 μl growth medium (with 1-2% glucose present) containing 10^7-8 bacterial cells, and brought to a final volume of 300 μl. The composition concentration was doubly diluted by the removal of 150 μl of the mixture and transfer to the next well containing 150 μl of identical growth medium, lacking the ROS producing components. The optical density of the medium was measured for 24 hours at 595 nm. […] Controls included wells to which none of the composition was supplemented, or wherein, one of the components was removed from the composition.
A further example of a pre-activated system was employed as follows: solutions (4 ml volumes) containing 0.85 M H2O2 plus none or 2.5 M NaCl/5 μl chloroperoxidase (˜10,000 Units/ml) were allowed incubate. The solutions were then split and either catalase treated (50 μl of a 4 mg/ml, >1,000 units/mg) or were not catalase treated. The relative antimicrobial properties of the solutions were then tested using the protocol as described in Example 1 using E. coli supplemented broth.

[13] = test system: E. coli; experiment: milk inoculated with E. coli, enzymatic system with Beta-galactosidase; format: cell-based; settings: component of the four-component system in milk inoculated with E. coli
[14] = effect of milk pasteurisation heating on the enzymatic components; format: physicochemical; settings: held 15-600 seconds; activity read by E. coli total viable counts in milk after 24 hrs at 37° C.
Protocol: An attempt was made to determine the effects of the milk pasteurisation process on the enzymatic components, which can be used to produce the reactive oxygen species of the composition of the present invention. Working concentrations of the enzymes were heated in 50 μl volumes to 72° C. and held for 15, 30, 60, 300 or 600 seconds.
Appropriate concentrations of these aliquots were then transferred to milk containing the necessary components of the system and ˜10^8 cells/ml E. coli. Total viable counts were performed after 24 hrs incubation at 37° C. This allowed the determination of whether the enzymes were still active after heating.

[15] = nutrient broth supplemented with KI and LP

## NCC[C@H](O)C(=O)N[C@@H]1C[C@H](N)[C@@H](O[C@H]2O[C@H](CN)[C@@H](O)[C@H](O)[C@H]2O)[C@H](O)[C@H]1O[C@H]1O[C@H](CO)[C@@H](O)[C@H](N)[C@H]1O [Amikacin]
[1]
  susceptibility of the strain to the antibiotic: R
[2]
  susceptibility of the strain to the antibiotic: R
[3]
  susceptibility of the strain to the antibiotic: R
[4]
  susceptibility of the strain to the antibiotic: R

## O=C(O)c1cn(C2CC2)c2cc(N3CCNCC3)c(F)cc2c1=O [Ciprofloxacin]
[5]
  susceptibility of the strain to the antibiotic: R
[1]
  susceptibility of the strain to the antibiotic: R
[3]
  susceptibility of the strain to the antibiotic: R

## [I-].[K+] [Iodide, potassium iodide]
[6]
  last doubling dilution with substrate level sufficient for complete inhibition: 8
[7]
  level of required substrate: approximately 0.5 mM
[8]
  number of dilutions of the H2O2 producing sample with inhibition: six

## N#C[S-].[K+] [Thiocyanate, potassium thiocyanate]
[6]
  last doubling dilution with substrate level sufficient for complete inhibition: 9
[7]
  level of required substrate: approximately 0.5 mM
[8]
  number of dilutions of the H2O2 producing sample with inhibition: two

## NC[C@H]1O[C@H](O[C@H]2[C@H](O)[C@@H](O[C@H]3O[C@H](CO)[C@@H](O)[C@H](N)[C@H]3O)[C@H](N)C[C@@H]2N)[C@H](N)C[C@@H]1O [Tobramycin]
[2]
  susceptibility of the strain to the antibiotic: R
[3]
  susceptibility of the strain to the antibiotic: R

## CC(=O)NC[C@H]1CN(c2ccc(N3CCN(C(=O)CO)CC3)c(F)c2)C(=O)O1 [eperezolid]
[9]
  result relative to gentamycin and vancomycin: better results

## OO [hydrogen peroxide]
[10]; [15]
  greatest dilution of the hydrogen peroxide source inhibitory to E. coli: 1:32 dilution still not inhibitory
[11]
  effect of catalase on the inhibitory nature: completely reverse the inhibitory nature
[12]
  dilutions at which inhibition of the bacteria was noted: no inhibition

## CC(=O)NC[C@H]1CN(c2ccc(N3CCOCC3)c(F)c2)C(=O)O1 [linezolid]
[9]
  result relative to gentamycin and vancomycin: better results

## O=C([O-])[O-].O=C([O-])[O-].OO.OO.OO.[Na+].[Na+].[Na+].[Na+] [sodium percarbonate solution, sodium percarbonate]
[10]; [15]
  greatest dilution of the hydrogen peroxide source inhibitory to E. coli: no difference as regards inhibition
[10]; nutrient broth without supplemented KI and LP
  greatest dilution of the hydrogen peroxide source inhibitory to E. coli: identical to that observed following direct H2O2 addition

## CN[C@H](CC(C)C)C(=O)N[C@H]1C(=O)N[C@@H](CC(N)=O)C(=O)N[C@H]2C(=O)N[C@H]3C(=O)N[C@H](C(=O)N[C@H](C(=O)O)c4cc(O)cc(O)c4-c4cc3ccc4O)[C@H](O)c3ccc(c(Cl)c3)Oc3cc2cc(c3O[C@@H]2O[C@H](CO)[C@@H](O)[C@H](O)[C@H]2O[C@H]2C[C@](C)(N)[C@H](O)[C@H](C)O2)Oc2ccc(cc2Cl)[C@H]1O [vancomycin]
[9]
  duration of treatment after which biofilm cells were still recoverable: 7 days

## Gentamicin
[9]
  duration of treatment after which biofilm cells were still recoverable: 10 days
[1]
  susceptibility of the strain to the antibiotic: R
[2]
  susceptibility of the strain to the antibiotic: R
[3]
  susceptibility of the strain to the antibiotic: R

## Glucose oxidase
[7]; 0.5% glucose
  glucose oxidase level required: 2 units/ml
[7]; 1% glucose
  glucose oxidase level required: 1 units/ml
[7]; LB broth, 2% glucose, 120 mg/L KI, 320 units LP
  glucose oxidase level required: at least 0.5 unit glucose oxidase/ml
[13]
  concentration sufficient to observe antibacterial activity: ≥ 3.75 mg/L

## lactoperoxidase
[14]
  enzyme activity after heating to 72° C.: demonstrated activity after 300 seconds heating
[7]; 1 mM KI present
  level of LP required: 0.15 unit activity/ml
[13]
  concentration sufficient to observe antibacterial activity: ≥ 12 mg/L
